Data on 24 compounds can be found in patent publication US7125990B2, “Imidazolyl derivatives as corticotropin releasing factor inhibitors” (Bristol-Myers Squibb COmpany, priority 2001, dated 2006).

Some results are limits rather than exact numbers.

The assay addresses T1, CRF1 receptors (Homo sapiens, UniProt P34998).
T1 construct: endogenous in cells; host or cells: IMR-32 cells, transformed with 2.5 µM 5'-bromo-2'-deoxyuridine for 10 days; membrane preparation
T1 sequence (P34998 24-415): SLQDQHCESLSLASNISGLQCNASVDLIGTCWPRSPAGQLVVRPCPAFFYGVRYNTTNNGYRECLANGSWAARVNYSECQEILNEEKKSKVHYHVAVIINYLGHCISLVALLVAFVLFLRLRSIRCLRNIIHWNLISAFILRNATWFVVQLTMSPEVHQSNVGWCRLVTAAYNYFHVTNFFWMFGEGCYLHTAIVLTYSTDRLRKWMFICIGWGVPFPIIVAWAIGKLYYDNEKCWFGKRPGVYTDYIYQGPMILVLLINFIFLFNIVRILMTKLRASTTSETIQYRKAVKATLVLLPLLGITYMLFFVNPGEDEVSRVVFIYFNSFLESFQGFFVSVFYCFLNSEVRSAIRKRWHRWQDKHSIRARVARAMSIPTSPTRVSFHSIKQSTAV
The assay is described as follows: CRF1 receptor radioligand binding assay ([125I]-oCRF competition, IMR-32 cell membranes). The settings on record: IMR-32 cell membranes, [125I]-oCRF 100 pM; read-out: Ki (CRF-1R). As for the experimental part: CRF1 receptor antagonists, by occupying the same receptors, blocks the accessibility of the receptors to CRF, a hypothalamic factor mediating body's responses to physiological and psychological stress. The following radioligand binding assay examines the ability of the antagonists to bind the CRF1 receptors by assessing their ability to compete with binding of CRF to the receptors in cell membrane.
Tissue culture and membrane preparation. IMR-32 cells were grown at 37° C. in 5% CO2 as a monolayer in medium consisting of MEM supplemented with 10% heat-inactivated fetal bovine serum, 0.1 mM nonessential amino acids, 1 mM sodium pyruvate and 2 mM L-glutamine. […] After transformation, cells were rinsed twice with phosphate-buffered saline, and incubated for 10–15 min. at 4° C. in homogenization buffer consisting of 50 mM Tris (pH 7.2), 10 mM MgCl2 and 2 mM EGTA. Cells were transferred from plates to polypropylene tubes (16×100 mm), homogenized and centrifuged at 32,000×g for 15 min. Pellets were resuspended by homogenization in buffer and centrifuged at 32,000×g for 15 min. Pellets were resuspended in homogenization buffer then stored at −80° C. until needed.
Radioligand binding assays. […] The assay buffer consisted of 50 mM Tris (pH 7.2), 10 mM MgCl2, 0.5% BSA, 0.005% Triton X-100, 10 μg/mL aprotinin and 10 μg/mL leupeptin. Assays were stopped by addition of ice-cold wash buffer (50 mM Tris, pH 7.4 and 0.2% BSA). Filtration over glass fiber filters (Whatman GF/B) previously soaked in 50 mM Tris, pH 7.2 and 1% BSA was carried out using a Brandel cell harvester. Filters were washed with 10 mL of ice-cold wash buffer. Non-specific binding was defined with 10 μM oCRF. IC50 values for oCRF and test compounds were calculated by nonlinear regression using a one-site binding curve (GraphPad Prism).
Take `CCN(CCc1ccccc1)Cc1c(C(F)(F)F)nc2n1CCCN2c1c(C)cc(C)cc1Cl` [Example 120, [8-(2-Chloro-4,6-dimethyl-phenyl)-2-trifluoromethyl-5,6,7,8-tetrahydro-imidazo[1,2-a]pyrimidin-3-ylmethyl]-ethyl-phenethyl-amine]: the Ki is below 1 µM. As to `CCc1nc2n(-c3c(C)cc(C)cc3C)c3ncccc3n2c1CN(CC1CC1)CC1CC1` [Example 246, Bis-cyclopropylmethyl-[2-ethyl-8-(2,4,6-trimethyl-phenyl)-8H-1,3a,7,8-tetraaza-cyclopenta[α]inden-3-ylmethyl]-amine], the Ki was below 0.1 µM. `CCCN(Cc1c(C(F)(F)F)nc2n(-c3c(C)cc(C)cc3C)c3ccccc3n12)CC1CCC1` [Example 153, Cyclobutylmethyl-propyl-[2-trifluoromethyl-8-(2,4,6-trimethyl-phenyl)-8H-1,3a,8-triaza-cyclopenta[α]inden-3-ylmethyl]-amine]: the inhibitory constant (Ki) was below 0.1 µM. The result for `Cc1cc(C)c(N2CCCn3c2nc(C(F)(F)F)c3CN(CCC(F)(F)F)Cc2ccc(Cl)cc2)c(Cl)c1` [Example 128, (4-Chloro-benzyl)-[8-(2-chloro-4,6-dimethyl-phenyl)-2-trifluoromethyl-5,6,7,8-tetrahydro-imidazo[1,2-a]pyrimidin-3-ylmethyl]-(3,3,3-trifluoro-propyl)-amine] reads below 1 µM.

In the case of `CCCN(CC1CC1)C(=O)c1c(C(F)(F)F)nc2n(-c3c(C)cc(C)cc3C)c(Cl)cn12` [Example 302, 6-Chloro-2-trifluoromethyl-7-(2,4,6-trimethyl-phenyl)-7H-imidazo[1,2-a]imidazole-3-carboxylic acid cyclopropylmethyl-propyl-amide], the Ki was below 0.1 µM. In the case of `Cc1cc(C)c(N2CCCn3c2nc(C(F)(F)F)c3CN(CC2CC2)CC(F)(F)C(F)(F)F)c(Cl)c1` [Example 115, [8-(2-Chloro-4,6-dimethyl-phenyl)-2-trifluoromethyl-5,6,7,8-tetrahydro-imidazo[1,2-a]pyrimidin-3-ylmethyl]-cyclopropylmethyl-(2,2,3,3,3-pentafluoro-propyl)-amine], the inhibitory constant (Ki) was below 0.1 µM. The result for `CC(C)c1ccc(-n2c3ccccc3n3c(CN(CCC(F)(F)F)CC4CC4)c(C(F)(F)F)nc23)c(Br)c1` [Example 189, [8-(2-Bromo-4-isopropyl-phenyl)-2-trifluoromethyl-8H-1,3a,8-triaza-cyclopenta[α]inden-3-ylmethyl]-cyclopropylmethyl-(3,3,3-trifluoro-propyl)-amine] reads below 1 µM; that for `CCc1nc2n(-c3ccc(Cl)cc3Cl)c(Cl)cn2c1CN(CC1CC1)CC(F)(F)F` [Example 289, 3-[(N-Cyclopropylmethyl-N-(2,2,2-trifluoroethyl)amino)methyl]-6-chloro-2-ethyl-7-(2,4-diclorophenyl)-7H-imidazo[1,2-a]imidazole], below 0.1 µM; that for `CCN(Cc1c(C(F)(F)F)nc2n(-c3ccc(C(C)C)cc3Br)c3ccccc3n12)CC1CC1` [Example 190, [8-(2-Bromo-4-isopropyl-phenyl)-2-trifluoromethyl-8H-1,3a,8-triaza-cyclopenta[α]inden-3-ylmethyl]-cyclopropylmethyl-ethyl-amine], below 1 µM. The figure for `Cc1cc(C)c(N2CCCn3c2nc(C(F)(F)F)c3CN2CCCC(C)C2)c(Cl)c1` (stereo not drawn) [Example 101, 8-(2-Chloro-4,6-dimethyl-phenyl)-3-(3-methyl-piperidin-1-ylmethyl)-2-trifluoromethyl-5,6,7,8-tetrahydro-imidazo[1,2-a]pyrimidine] is below 1 µM.

Turning to `CCCCN(CC)Cc1c(C(F)(F)F)nc2n(-c3ccc(C(C)C)cc3Br)c3ccccc3n12` [Example 203, [8-(2-Bromo-4-isopropyl-phenyl)-2-trifluoromethyl-8H-1,3a,8-triaza-cyclopenta[α]inden-3-ylmethyl]-butyl-ethyl-amine], the Ki was below 10 µM. The figure for `CCCN(CC1CC1)C(=O)c1c(CC)nc2n1CCN2c1ccc(C(C)C)cc1Br` [Example 35, 7-(2-Bromo-4-isopropyl-phenyl)-2-ethyl-6,7-dihydro-5H-imidazo[1,2-a]imidazole-3-carboxylic acid cyclopropylmethyl-propyl-amide] is below 10 µM; for `Cc1cc(C)c(-n2c3ncccc3n3c(CN(CC4CC4)CC(F)(F)F)c(C(F)(F)F)nc23)c(C)c1` [Example 210, Cyclopropylmethyl-(2,2,2-trifluoro-ethyl)-[2-trifluoromethyl-8-(2,4,6-trimethyl-phenyl)-8H-1,3a,7,8-tetraaza-cyclopenta[α]inden-3-ylmethyl]-amine] it is below 0.1 µM. The result for `Cc1cc(C)c(-n2c(Cl)cn3c(CN(C)CCc4ccccc4)c(C(F)(F)F)nc23)c(C)c1` [Example 308, [6-Chloro-2-trifluoromethyl-7-(2,4,6-trimethyl-phenyl)-7H-imidazo[1,2-a]imidazol-3-ylmethyl]-methyl-phenethyl-amine] reads below 1 µM; that for `CCCN(Cc1c(C(F)(F)F)nc2n1CCCN2c1c(C)cc(C)cc1Cl)CC(F)(F)C(F)(F)F` [Example 117, [8-(2-Chloro-4,6-dimethyl-phenyl)-2-trifluoromethyl-5,6,7,8-tetrahydro-imidazo[1,2-a]pyrimidin-3-ylmethyl]-(2,2,3,3,3-pentafluoro-propyl)-propyl-amine], below 1 µM. Regarding `Cc1cc(C)c(N2CCCn3c2nc(C(F)(F)F)c3CN(CC2CC2)CC(F)(F)C(F)(F)F)c(C)c1` [Example 74, Cyclopropylmethyl-(2,2,3,3,3-pentafluoro-propyl)-[2trifluoromethyl-8-(2,4,6-trimethyl-phenyl)-5,6,7,8-tetrahydro-imidazo[1,2-a]pyrimidin-3-ylmethyl]-amine], the Ki is below 0.1 µM. On to `CC(C)c1ccc(-n2c3ccccc3n3c(CN(CCC4CC4)CC(F)(F)F)c(C(F)(F)F)nc23)c(Br)c1` [Example 204, [8-(2-Bromo-4-isopropyl-phenyl)-2-trifluoromethyl-8H-1,3a,8-triaza-cyclopenta[α]inden-3-ylmethyl]-(2-cyclopropyl-ethyl)-(2,2,2-trifluoro-ethyl)-amine], for which the Ki is below 10 µM. For `Cc1cc(C)c(-n2c(Cl)cn3c(CN4CCSCC4)c(C(F)(F)F)nc23)c(C)c1` [Example 306, 2-Chloro-5-thiomorpholin-4-ylmethyl-6-trifluoromethyl-1-(2,4,6-trimethyl-phenyl)-1H-imidazo[1,2-a]imidazole], the Ki was below 1 µM.

Regarding `CCCN(CCC1CC1)Cc1c(C(F)(F)F)nc2n1CCCN2c1c(C)cc(C)cc1C` [Example 87, (2-Cyclopropyl-ethyl)-propyl-[2-trifluoromethyl-8-(2,4,6-trimethyl-phenyl)-5,6,7,8-tetrahydro-imidazo[1,2-a]pyrimidin-3-ylmethyl]-amine], the inhibitory constant (Ki) is below 1 µM.

Regarding `CCN(Cc1ccccc1)Cc1c(C(F)(F)F)nc2n(-c3c(C)cc(C)cc3C)c(Cl)cn12` [Example 309, Benzyl-[6-chloro-2-trifluoromethyl-7-(2,4,6-trimethyl-phenyl)-7H-imidazo[1,2-a]imidazol-3-ylmethyl]-ethyl-amine], the Ki was below 1 µM. The result for `CCCCN(C)Cc1c(C(F)(F)F)nc2n(-c3c(C)cc(C)cc3C)c(Cl)cn12` [Example 310, Butyl-[6-chloro-2-trifluoromethyl-7-(2,4,6-trimethyl-phenyl)-7H-imidazo[1,2-a]imidazol-3-ylmethyl]-methyl-amine] reads below 1 µM. With `Cc1cc(C)c(N2CCCn3c2nc(C(F)(F)F)c3CN2CCCC2Cc2ccccc2)c(C)c1` (stereo not drawn) [Example 347, 3-(2-Benzyl-pyrrolidin-1-ylmethyl)-2-trifluoromethyl-8-(2,4,6-trimethyl-phenyl)-5,6,7,8-tetrahydro-imidazo[1,2-a]pyrimidine], the Ki was below 0.01 µM. Turning to `CCCN(CCC1CC1)Cc1c(C(F)(F)F)nc2n1CCCN2c1c(C)cc(C)cc1Cl` [Example 124, [8-(2-Chloro-4,6-dimethyl-phenyl)-2-trifluoromethyl-5,6,7,8-tetrahydro-imidazo[1,2-a]pyrimidin-3-ylmethyl]-(2-cyclopropyl-ethyl)-propyl-amine], the inhibitory constant (Ki) is below 1 µM.

For `Cc1cc(C)c(-n2c(Cl)cn3c(CN4CC=CCC4)c(C(F)(F)F)nc23)c(C)c1` [Example 305, 2-Chloro-5-(3,6-dihydro-2H-pyridin-1-ylmethyl)-6-trifluoromethyl-1-(2,4,6-trimethyl-phenyl)-1H-imidazo[1,2-a]imidazole], the inhibitory constant (Ki) is below 1 µM.

As a reminder, the Ki is the dissociation constant of the complex between target and ligand, obtained from inhibition or displacement.
